The text below walks through data of ChEMBL document CHEMBL4840357, “Functionalized Dioxonaphthoimidazoliums: A Redox Cycling Chemotype with Potent Bactericidal Activities against Mycobacterium tuberculosis” (J Med Chem, 2021).

Structures are written as SMILES. Values after ≈ are worked out from the molar mass of the structure shown. Active and inactive are the calls of the source.

Data set [1] has as its system Mycobacterium tuberculosis. It counts as functional. Particulars: H37Rv ATCC 27294, 168 h, time 7 day.
Data set [2] has as its system Vero. The data set can be described thus: Cytotoxicity against African green monkey Vero cells assessed as reduction in cell viability incubated for 48 hrs by CellTiter 96 aqueous one solution reagent based assay. Particulars: Chlorocebus sabaeus.
In data set [3] the test system is Mycobacterium tuberculosis. It counts as functional, organism-based. As to conditions: H37Rv ATCC 27294, time 7.0 day.
Data set [4] is described as follows: Mutagenicity in Salmonella typhimurium TA100 at 1.5 to 64 ug in presence of S9 fraction by ames test. It is filed as toxicity, subcellular, Salmonella enterica subsp. enterica serovar Typhimurium. As to conditions: dose 1.5-64 µg.
Data set [5] concerns Mycolicibacterium smegmatis. The data set can be described thus: Induction of oxygen consumption in Mycobacterium smegmatis mc24517 inverted membrane vesicles. It counts as functional.
Data set [6] in a line: Permeability of compound incubated for 16 hrs by PAMPA. It counts as ADME. A general note: The PAMPA barrier holds no transporters, so it reflects passive diffusion.
Data set [7] in a line: Mutagenicity in Salmonella typhimurium TA98 at 1.5 to 64 ug in absence of S9 fraction by ames test. It is filed as toxicity, Salmonella enterica subsp. enterica serovar Typhimurium. Particulars: in vivo; dose 1.5-64 µg.
Data set [8] deals with Mycolicibacterium smegmatis. The data set is described as follows: Induction of pH gradient dissipation in Mycobacterium smegmatis mc24517 inverted membrane vesicles at 1 to 2 uM. It counts as functional. As to conditions: Membrane vesicle, dose 1-2 µM.
The nature of data set [9]: Selectivity index, ratio of IC50 for African green monkey Vero cells to MIC50 for Mycobacterium tuberculosis H37Rv ATCC 27294. It counts as toxicity. Particulars: read-out: Selectivity Index.
Data set [10] is described as follows: Metabolic stability in rat microsomes assessed as half life preincubated for 5 mins followed by NADPH addition and measured upto 45 mins by LC-MS/MS analysis. It is filed as ADME, Microsome. Particulars: time <=50 min.
A short description of data set [11]: Half life in Swiss albino mouse at 50 mg/kg, po or 1 mg/kg, iv measured upto 24 hrs by HPLC-LCMS analysis. It is filed as ADME, organism-based. As to conditions: in vivo.
Data set [12] is described as follows: Mutagenicity in Salmonella typhimurium TA100 at 1.5 to 64 ug in absence of S9 fraction by ames test. It counts as toxicity, Salmonella enterica subsp. enterica serovar Typhimurium. Particulars: in vivo; dose 1.5-64 µg.
A short description of data set [13]: Mutagenicity in Salmonella typhimurium TA98 at 1.5 to 64 ug in presence of S9 fraction by ames test. It counts as toxicity, subcellular, Salmonella enterica subsp. enterica serovar Typhimurium. Particulars: dose 1.5-64 µg.
The test system of data set [14] is Mycolicibacterium smegmatis. The data set can be described thus: Induction of NADH oxidation in Mycobacterium smegmatis mc24517 inverted membrane vesicles. It counts as functional, Membrane vesicle.
Data set [15] is described as follows: Volume of distribution in Swiss albino mouse at 50 mg/kg, po or 1 mg/kg, iv measured upto 24 hrs by HPLC-LCMS analysis. It is filed as ADME, organism-based. Particulars: in vivo.
Data set [16] is described as follows: Clearance in Swiss albino mouse at 50 mg/kg, po or 1 mg/kg, iv measured upto 24 hrs by HPLC-LCMS analysis. It counts as ADME, organism-based. Particulars: in vivo.
Data set [17] relates to Mycolicibacterium smegmatis. The data set is described as follows: Induction of hydrogen […] production in Mycobacterium smegmatis mc24517 inverted membrane vesicles. It counts as functional.
Data set [18] in a line: Oral bioavailability in Swiss albino mouse at 50 mg/kg measured upto 24 hrs by HPLC-LCMS analysis. It is filed as ADME, organism-based. As to conditions: in vivo.
The nature of data set [19]: Aqueous solubility of compound at pH 7.4. As to conditions: buffer. It counts as physicochemical.
The subject of data set [20] is Mycobacterium tuberculosis. It counts as functional. Particulars: H37Rv ATCC 27294, 168 h, time 7 day, read-out: MBC99.9.

Broadly, the MIC50 is an inhibitory concentration at the 50% level, which refers to growth in some studies and to a panel of isolates in others. As a reminder, the MIC90 is the lowest concentration that inhibits either 90% of growth or 90% of the strains tested, depending on the study. On to `NNC(=O)c1ccncc1` [ISONIAZID], for which, in data set [1], the MIC50 is 1.6 µM (≈ 0.219 µg/mL) and the MIC90 was determined as 3.2 µM (≈ 0.439 µg/mL).

On to `CC(C)/N=c1\cc2n(-c3ccc(Cl)cc3)c3ccccc3nc-2cc1Nc1ccc(Cl)cc1` [CLOFAZIMINE], for which, in [1], the MIC50 is 0.2 µM (≈ 0.0947 µg/mL) and the MIC90 turned out to be 0.8 µM (≈ 0.379 µg/mL).

In data set [1], `CCCCCC[n+]1c2c(n(CC(C)C)c1C)C(=O)c1ccccc1C2=O` returned an MIC50 of 4 µM and an MIC90 of 6 µM.

Take `CCCCCCCC[n+]1c2c(n(CC(C)C)c1C)C(=O)c1ccccc1C2=O`: in data set [1], the MIC50 worked out at 2 µM and the MIC90 is 3 µM.

What is called IC50 is the concentration that gives 50% inhibition. As usually defined, the half-life is the time needed for the level to fall by half in the phase considered. The term EC50 denotes the concentration giving half of the maximal effect. In general, bioavailability refers to dose-corrected exposure relative to a reference, in per cent. What is called solubility is how much of the substance goes into solution per volume. Take `CCCCCCCCn1c2c([n+](CCCC)c1C)C(=O)c1ccccc1C2=O.[Br-]`: in [2], the IC50 turned out to be 24 µM. Also, the result in data set [3] and in [8] was Active. Besides, in [1], the MIC50 was determined as 0.82 µM. The compound also showed an MIC90 in [1] of 1.5 µM. Further, the Activity result in data set [4], in [7], in data set [12] and in [13] was “Non-Toxic” each time. Besides, the results for the “fold change (FC)” value in data set [5] and in data set [17] were 7 and 4, respectively. In addition, the permeability entry in data set [6] is “Not Active”. Also, in data set [9], the selectivity ratio was 29. Moreover, the half-life in [10] was 0.333 h; in data set [11], 7 h. The compound also yielded an EC50 in data set [14] of 0.25 µM. In [15], this compound came in with a Vd of 27 L/kg. Moreover, the clearance in [16] is 38 mL/min/kg. For the same compound, the bioavailability in data set [18] turned out to be 1%. Moreover, in data set [19], the solubility is 118 µM. For the same compound, the MBC in data set [20] worked out at 6.3 µM.

In the case of `CCCCCCCn1c2c([n+](CCCCC)c1C)C(=O)c1ccccc1C2=O.[Br-]`, the IC50 in [2] was 20 µM. Also, in data set [3], the outcome was Active. In addition, in [1], the MIC50 was 0.77 µM and the MIC90 turned out to be 1.2 µM. Besides, the selectivity ratio in data set [9] worked out at 26. The MBC in data set [20] worked out at 6.3 µM.

In the case of `CCCCn1c2c([n+](C3CCC4(CCCCC4)CC3)c1C)C(=O)c1ccccc1C2=O.[Br-]`, the IC50 in [2] is 15 µM. In [1], this compound returned an MIC50 of 0.28 µM. For the same compound, the MIC90 in data set [1] amounted to 0.53 µM. Further, the Activity entry in data set [4], in data set [7], in [12] and in data set [13] was “Non-Toxic” in each case. Moreover, in [6], the permeability result is on record as “Not Active”. Moreover, the selectivity ratio in data set [9] was determined as 54. The half-life was 0.333 h in [10] and 7 h in data set [11]. In data set [15], this compound returned a Vd of 27 L/kg. In [16], the clearance was determined as 38 mL/min/kg. Besides, in data set [18], the bioavailability worked out at 1%. The compound further showed a solubility in data set [19] of 118 µM. For the same compound, in data set [20], the MBC came out at 1.6 µM.

Regarding `CCCCCCn1c2c([n+](C3CCC4(CCCCC4)CC3)c1C)C(=O)c1ccccc1C2=O`, the half-maximal inhibitory concentration (IC50) in data set [2] came out at 6.3 µM. In addition, in data set [1], the MIC50 was 0.3 µM and the MIC90 was determined as 0.4 µM. For the same compound, the selectivity ratio in data set [9] was determined as 21. Moreover, the MBC in data set [20] was 1.6 µM.

Turning to `CCCCCCn1c2c([n+](CCCCCC)c1C)C(=O)c1ccccc1C2=O`, the concentration for half-maximal inhibition (IC50) in data set [2] turned out to be 14 µM. In [1], this compound returned an MIC50 of 0.67 µM and an MIC90 of 1.5 µM. In addition, the selectivity ratio in data set [9] is 21. Also, the MBC in data set [20] came out at 6.3 µM.

With `CCCCCCCCn1c2c([n+](C3CCC4(CCCCC4)CC3)c1C)C(=O)c1ccccc1C2=O`, in data set [2], the IC50 came to 5 µM. Also, in data set [1], the MIC50 was 0.3 µM and the MIC90 turned out to be 0.4 µM. The selectivity ratio in data set [9] amounted to 17. Further, in data set [20], the MBC worked out at 1.2 µM.
